Measured values from patent US20170304168A1, “PHENYL KETONE DERIVATIVES AS SELF-TANNING AGENTS” (MERCK PATENT GmbH, priority 2012, published 2017).

System: B16V mouse melanoma cells
Assay: B16 V mouse melanoma cell test (melanin content)
Type: cell-based
Conditions: for Melanin content in pg/B-16V cell: relative to negative control DMSO 0.1% = 100
Procedure: mouse melanoma cells (manufacturer: DSMZ; Article No.: ACC370) in RPMI medium (Invitrogen, Article No.: 31870), to which 10% of FBS (foetal bovine serum; Invitrogen, Article No.: 10499044), 2 mM L-glutamine (Invitrogen, Article No: 25030) and 1 mM sodium pyruvate (Invitrogen, Article No.: 11360) had additionally been added (=modified RPMI medium), are transferred into a culture flask and incubated at 37° C. and 5% CO2 for 72 h. The medium is separated off, and the cells are washed with 10 ml of D-PBS (Dulbecco's phosphate-buffered salines; Invitrogen, Article No.: 14190) and subsequently removed by suction. 1 ml of HyQtase cell detachment solution (Hyclone, Article No.: SV30030.01) is added to the cells. The bottle is swirled a number of times, and the HyQtase cell detachment solution is subsequently removed by suction. The cells are then incubated in the incubator at 37° C. and 5% CO2 for 5 min. The cells are taken up in the modified RPMI medium (see above), and the cell count is determined. To this end, the cells are stained with Trypan Blue and counted in a Neubauer chamber. The cells are subsequently sown out again in the modified RPMI medium (see above) in a defined cell count of 80,000 cells per well (6-well clear plate, TCT, PS (Nunc)). The cells are incubated at 37° C. and 5% CO2 for 24 h, the medium is then removed. The substance to be investigated (see table below) is subsequenly added in various concentrations. After the final incubation period, the medium is removed by suction, and the cells are washed with 1000 μl of D-PBS (Invitrogen, Article No.: 14190). The medium is again removed by suction. 250 μl of HyQtase cell detachment solution (Hyclone, Article No.: SV30030.01) are added to the cells. The 6-well plate is swirled a number of times, and the HyQtase cell detachment solution is subsequently removed by suction. The cells are then incubated in the incubator at 37° C. and 5% CO2 for 5 min. The cells are taken up in 1.5 ml of DPBS (Invitrogen, Article No.: 14190) and transferred into a cup (SARSTEDT, Ref. 72.692.005). The cell count is subsequently determined. To this end, the cells are stained with Trypan Blue and counted in a NeuBauer chamber. The cells are then centrifuged at 3500 g for 1 min. The pellets obtained are photographed, and the supernatant is subsequently removed by suction. The pellets are dissolved in 1 ml of 1N NaOH at 80° C. for 1 h and then cooled to RT. 200 μl per cup (as quadruple determination) are subsequently pipetted into a 96-well plate (VWR, Article No.: 4100636981), and the absorption at a wavelength of 405 nm is determined (Safire, Tecan). The content of melanin can be determined in this way by means of a calibration line. As comparison with the compounds of the formula I to be investigated, a sample with dimethyl sulfoxide (DMSO) (0.1%) as negative control and a sample with IBMX (200 μm) as positive control are each investigated in parallel. The following tables give the results of the determination of the melanin concentration obtained for the substance dilutions indicated. The results obtained are quoted relative to the negative control with dimethyl sulfoxide (DMSO), whose measurement value is set to 100%. IBMX serves as positive control.

[1] = Test 1, 300 μM (printed 300 µM)

Compound	Effect on melanogenesis (result in words) (Result of Test 1)	Melanin content in pg/B-16V cell (Test 1, 50 μM) [pg/B-16V cell]	Effect on melanogenesis (result in words) (Result of Test 2)	Melanin content in pg/B-16V cell (Test 2, 100 μM) [pg/B-16V cell]	Melanin content in pg/B-16V cell (Test 2, 500 μM) [pg/B-16V cell]	also measured
CC(C)Cn1c(=O)n(C)c(=O)c2[nH]cnc21 [IBMX, reference compound]						Melanin content in pg/B-16V cell (Test 1, 200 μM (printed 200 µM)): 726 pg/B-16V cell; Melanin content in pg/B-16V cell (Test 2, 200 μM (printed 200 µM)): 338 pg/B-16V cell
CC(=O)c1ccccc1O [Ia, 1-(2-Hydroxyphenyl)ethanone]	promote melanogenesis	191				Melanin content in pg/B-16V cell [1]: 429 pg/B-16V cell; Melanin content in pg/B-16V cell (Test 1, 1 mM): 438 pg/B-16V cell
COc1ccccc1C(C)=O [Ib, 1-(2-Methoxyphenyl)ethanone]	promote melanogenesis	202				Melanin content in pg/B-16V cell [1]: 318 pg/B-16V cell; Melanin content in pg/B-16V cell (Test 1, 1 mM): 611 pg/B-16V cell
CC(=O)c1c(O)cc(O)cc1O [Ic]	promote melanogenesis	129				Melanin content in pg/B-16V cell (Test 1, 100 μM): 144 pg/B-16V cell; Melanin content in pg/B-16V cell (Test 1, 500 μM): 184 pg/B-16V cell
COc1cccc(O)c1C(C)=O [Id, 1-(2-Hydroxy-6-methoxyphenyl)ethanone]			promote melanogenesis	275	432	
COc1ccc(C(C)=O)c(OC)c1 [Ie, 1-(2,4-Dimethoxyphenyl)-ethanone]			promote melanogenesis	104	121	
CC(=O)c1ccccc1N [Ig]			promote melanogenesis	133	209	
COc1cc(OC)c(C(C)=O)c(OC)c1 [Ih]			promote melanogenesis	126	164	
